Reference: patent publication US12453709B2, “Compositions and methods for treating autism” (priority 2013, dated 2025)

Test system: patients qualified under the DSM-5 definition of autism
Assay: Example 4: Aberrant Behavior Checklist-Community (ABC-C)
Type: in vivo, human
Conditions: for ABC irritability / ABC lethargy / ABC speech / ABC stereotypy / ABC hyperactivity / ABC TOTAL: PT RS; for ABC irritability: initial 3; for ABC lethargy: initial 6; for ABC speech: initial 8; for ABC TOTAL: initial 53
Description: α-methyl-DL tyrosine (AMPT) was administered to 3 patients. This group of patients was qualified under the DSM-5 definition of autism and treated. The Aberrant Behavior Checklist-Community (ABC-C), Autism Diagnostic Observation Schedule (ADOS), Conners Parent Rating Scale (CPRS), and General Clinical Impressions scale were used to assess the disease. Videos were taken at each visit.

## CC(N)(Cc1ccc(O)cc1)C(=O)O (racemic) [L1-79, α-methyl-DL-tyrosine]
PT LR, Day 7, initial 5
  ABC-C speech: 7
PT LR, Day 7, initial 13
  ABC-C stereotypy: 5
PT LR, Day 7, initial 21
  ABC-C irritability: 16
PT LR, Day 7, initial 31
  ABC-C lethargy: 12
PT LR, Day 7, initial 34
  ABC-C hyperactivity: 31
PT LR, Day 7, initial 114
  ABC-C TOTAL: 71
PT LR, Day 14, initial 5
  ABC-C speech: 7
PT LR, Day 14, initial 13
  ABC-C stereotypy: 0
PT LR, Day 14, initial 21
  ABC-C irritability: 16
PT LR, Day 14, initial 31
  ABC-C lethargy: 8
PT LR, Day 14, initial 34
  ABC-C hyperactivity: 24
PT LR, Day 14, initial 114
  ABC-C TOTAL: 55
PT LR, Day 21, initial 5
  ABC-C speech: 7
PT LR, Day 21, initial 13
  ABC-C stereotypy: 0
PT LR, Day 21, initial 21
  ABC-C irritability: 16
PT LR, Day 21, initial 31
  ABC-C lethargy: 7
PT LR, Day 21, initial 34
  ABC-C hyperactivity: 23
PT LR, Day 21, initial 114
  ABC-C TOTAL: 53
PT LR, Day 28, initial 5
  ABC-C speech: 7
PT LR, Day 28, initial 13
  ABC-C stereotypy: 0
PT LR, Day 28, initial 21
  ABC-C irritability: 16
PT LR, Day 28, initial 31
  ABC-C lethargy: 7
PT LR, Day 28, initial 34
  ABC-C hyperactivity: 23
PT LR, Day 28, initial 114
  ABC-C TOTAL: 53
Day 7
  ABC irritability: 3
  ABC lethargy: 3
  ABC speech: 3
  ABC TOTAL: 28
Day 7, initial 16
  ABC stereotypy: 11
Day 7, initial 20
  ABC hyperactivity: 8
Day 14
  ABC irritability: 1
  ABC lethargy: 1
  ABC speech: 3
  ABC TOTAL: 20
Day 14, initial 16
  ABC stereotypy: 9
Day 14, initial 20
  ABC hyperactivity: 6
Day 21
  ABC irritability: 1
  ABC lethargy: 1
  ABC speech: 3
  ABC TOTAL: 20
Day 21, initial 16
  ABC stereotypy: 9
Day 21, initial 20
  ABC hyperactivity: 6
Day 28
  ABC irritability: 1
  ABC lethargy: 1
  ABC speech: 3
  ABC TOTAL: 20
Day 28, initial 16
  ABC stereotypy: 9
Day 28, initial 20
  ABC hyperactivity: 6
PT WC, Day 7, initial 1
  ABC-C speech: 0
PT WC, Day 7, initial 12
  ABC-C stereotypy: 7
PT WC, Day 7, initial 16
  ABC-C irritability: 4
PT WC, Day 7, initial 20
  ABC-C hyperactivity: 10
PT WC, Day 7, initial 21
  ABC-C lethargy: 9
PT WC, Day 7, initial 70
  ABC-C TOTAL: 30
PT WC, Day 14, initial 1
  ABC-C speech: 0
PT WC, Day 14, initial 12
  ABC-C stereotypy: 6
PT WC, Day 14, initial 16
  ABC-C irritability: 2
PT WC, Day 14, initial 20
  ABC-C hyperactivity: 7
PT WC, Day 14, initial 21
  ABC-C lethargy: 3
PT WC, Day 14, initial 70
  ABC-C TOTAL: 18
PT WC, Day 21, initial 1
  ABC-C speech: 0
PT WC, Day 21, initial 12
  ABC-C stereotypy: 6
PT WC, Day 21, initial 16
  ABC-C irritability: 2
PT WC, Day 21, initial 20
  ABC-C hyperactivity: 7
PT WC, Day 21, initial 21
  ABC-C lethargy: 2
PT WC, Day 21, initial 70
  ABC-C TOTAL: 17
PT WC, Day 28, initial 1
  ABC-C speech: 0
PT WC, Day 28, initial 12
  ABC-C stereotypy: 6
PT WC, Day 28, initial 16
  ABC-C irritability: 2
PT WC, Day 28, initial 20
  ABC-C hyperactivity: 7
PT WC, Day 28, initial 21
  ABC-C lethargy: 2
PT WC, Day 28, initial 70
  ABC-C TOTAL: 17
